Reference: ChEMBL document CHEMBL5728527, “Naphthyridines as inhibitors of HPK1” (2021)
Where “and” joins values, the source holds several entries; their conditions need not be identical. Identical values can stand only once.

Target: Mitogen-activated protein kinase kinase kinase kinase 1 (Homo sapiens, UniProt Q92918)
Assay: Binding Assay: Lanth: For the binding assay, 4 ul 2×HPK1 and Eu-anti-GST antibody were added to each well of the assay plate using a Multidrop reagent dispenser. The solutions were incubated in a 23 C incubator for 1 h. To each well of the assay plate was added 4 ul 2× Tracer-222 using a Multidrop reagent dispenser. The solutions were again incubated in a 23 C incubator for 1 h. The results of the assay were read using an Envision plate reader with the following parameters: TR_FRET, 340ex/615 and 665em; 100 usec Delay; and 200 usec integration.

Sequence of Mitogen-activated protein kinase kinase kinase kinase 1 (Q92918 whole entry): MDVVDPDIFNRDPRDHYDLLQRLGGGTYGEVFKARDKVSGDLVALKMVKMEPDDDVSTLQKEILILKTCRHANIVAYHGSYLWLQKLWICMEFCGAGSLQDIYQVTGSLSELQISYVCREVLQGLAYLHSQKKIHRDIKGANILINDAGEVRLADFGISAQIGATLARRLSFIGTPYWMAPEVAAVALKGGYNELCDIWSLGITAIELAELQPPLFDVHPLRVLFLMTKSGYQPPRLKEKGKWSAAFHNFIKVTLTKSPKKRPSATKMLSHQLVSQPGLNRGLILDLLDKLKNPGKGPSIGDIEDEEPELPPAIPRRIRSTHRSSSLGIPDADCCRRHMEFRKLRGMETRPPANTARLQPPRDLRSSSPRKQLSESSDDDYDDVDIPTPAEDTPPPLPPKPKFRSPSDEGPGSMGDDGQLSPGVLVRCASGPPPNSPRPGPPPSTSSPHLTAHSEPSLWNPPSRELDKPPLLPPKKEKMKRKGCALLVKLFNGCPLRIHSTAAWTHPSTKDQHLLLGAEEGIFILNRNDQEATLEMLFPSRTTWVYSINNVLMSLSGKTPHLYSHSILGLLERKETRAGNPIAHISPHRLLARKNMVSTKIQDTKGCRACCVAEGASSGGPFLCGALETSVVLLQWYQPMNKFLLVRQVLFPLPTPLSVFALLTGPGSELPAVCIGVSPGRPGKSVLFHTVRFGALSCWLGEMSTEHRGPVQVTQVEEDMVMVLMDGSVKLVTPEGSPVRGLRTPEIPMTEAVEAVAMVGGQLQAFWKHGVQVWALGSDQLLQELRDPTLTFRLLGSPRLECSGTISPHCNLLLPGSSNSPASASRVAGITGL

SMILES: CCc1ccncc1-c1cc2cc(NC(=O)[C@@H]3C[C@@H]3C#N)ncc2c(N)n1
- Ki: 10.6 nM and 3.21 nM

SMILES: CCOc1ccncc1-c1cc2cc(NC(=O)[C@H]3C[C@@H]3C#N)ncc2c(N)n1 (racemic)
- Ki: 0.98 nM

SMILES: Nc1nc(-c2cncc3c2OCC(=O)N3)cc2cc(NC(=O)[C@@H]3C[C@@H]3F)ncc12 (racemic)
- Ki: 1.77 nM

SMILES: CCc1ccncc1-c1cc2cc(NC(=O)[C@@H]3C[C@H]3C(=O)C3CC(O)C3)ncc2c(N)n1 (mixture of isomers)
- Ki: 163 nM

SMILES: Cc1c(N)cncc1-c1cc2cc(NC(=O)[C@H]3C[C@@H]3C(F)(F)F)ncc2c(N)n1 (racemic)
- Ki: 1.1 nM

SMILES: Cc1ccncc1-c1cc2cc(NC(=O)[C@@H]3C[C@H]3c3cnsc3)ncc2c(N)n1 (racemic)
- Ki: 0.15 nM

SMILES: Cc1ccncc1-c1cc2cc(NC(=O)[C@H]3[C@@H]4COC[C@@H]43)ncc2c(N)n1 (single isomer, unassigned)
- Ki: 4.9 nM

SMILES: Cc1ccncc1-c1cc2cc(NC(=O)C(C)C)ncc2c(N)n1
- Ki: 29.8 nM

SMILES: Cc1ccncc1-c1cc2cc(NC(=O)[C@@H]3C[C@H]3C#N)ncc2c(N)n1 (single isomer, unassigned)
- Ki: 4.06 nM

SMILES: C=Cc1c(-c2cnccc2C)nc(N)c2cnc(NC(=O)[C@H]3C[C@@H]3CC#N)cc12 (racemic)
- Ki: 0.225 nM

SMILES: Cc1ccnc(-c2ccccc2)c1-c1cc2cc(NC(=O)[C@H]3C[C@@H]3CC#N)ncc2c(N)n1 (racemic)
- Ki: 0.051 nM

SMILES: CCc1ccncc1-c1cc2cc(NC(=O)[C@H]3C[C@H]3C#N)ncc2c(N)n1 (single isomer, unassigned)
- Ki: 3.64 nM

SMILES: CCc1ccncc1-c1cc2cc(NC(=O)[C@H]3C[C@@H]3C#N)ncc2c(N)n1
- Ki: 1.31 nM and 0.583 nM

SMILES: Cc1ccncc1-c1cc2cc(NC(=O)[C@H]3[C@@H](C)[C@@H]3CC#N)ncc2c(N)n1
- Ki: 0.763 nM

SMILES: CC(=O)OC[C@@]1(C)C[C@@H]1C(=O)Nc1cc2cc(-c3cnccc3C)nc(N)c2cn1 (racemic)
- Ki: 17.1 nM

SMILES: Cc1ccncc1-c1cc2cc(NC(=O)[C@@H]3C[C@H]3F)ncc2c(N)n1 (single isomer, unassigned)
- Ki: 2.8 nM

SMILES: N#C[C@@H]1C[C@H]1C(=O)Nc1cc2cc(-c3cnccc3C(F)(F)F)nc(N)c2cn1 (racemic)
- Ki: 6.49 nM

SMILES: Cc1cc(C(C)(C)O)ncc1-c1cc2cc(NC(=O)[C@@H]3C[C@@H]3F)ncc2c(N)n1 (racemic)
- Ki: 41.7 nM

SMILES: CCc1cc(OC)ncc1-c1cc2cc(NC(=O)[C@@H]3C[C@@H]3F)ncc2c(N)n1 (racemic)
- Ki: 4.88 nM

SMILES: Cc1ccncc1-c1cc2cc(NCC3CC3(F)F)ncc2c(N)n1 (racemic)
- Ki: 61.3 nM

SMILES: Cc1c[nH]c(=O)cc1-c1cc2cc(NC(=O)[C@@H]3C[C@@H]3F)ncc2c(N)n1 (racemic)
- Ki: 6.5 nM

SMILES: Cc1ccncc1-c1cc2cc(NC(=O)[C@@H]3[C@@H](C)[C@H]3CC#N)ncc2c(N)n1
- Ki: 0.837 nM

SMILES: CCC1CCCN1c1cc2cc(NC(=O)[C@@H]3C[C@@H]3F)ncc2c(N)n1 (mixture of isomers)
- Ki: 11.7 nM and 10.3 nM

SMILES: COC(=O)c1cc(C)c(-c2cc3cc(NC(=O)[C@H]4C[C@@H]4c4cnn(C)c4)ncc3c(N)n2)cn1
- Ki: 0.509 nM

SMILES: CC(=O)OC[C@]1(C)C[C@@H]1C(=O)Nc1cc2cc(-c3cnccc3C)nc(N)c2cn1 (racemic)
- Ki: 14.6 nM

SMILES: Cc1ccncc1-c1cc2cc(NC(=O)[C@H]3C[C@@H]3c3ncccn3)ncc2c(N)n1 (racemic)
- Ki: 10 nM

SMILES: CCc1cc(=O)n(C)cc1-c1cc2cc(NC(=O)[C@@H]3C[C@@H]3F)ncc2c(N)n1 (racemic)
- Ki: 440 nM

SMILES: Cc1ccncc1-c1nc(N)c2cnc(NC(=O)[C@@H]3C[C@H]3c3cn[nH]c3)cc2c1Cl (racemic)
- Ki: 0.047 nM

SMILES: COCCc1ccncc1-c1cc2cc(NC(=O)[C@H]3C[C@@H]3C#N)ncc2c(N)n1 (racemic)
- Ki: 21.2 nM

SMILES: Nc1nc(-c2cncc3c2OCCN3)cc2cc(NC(=O)[C@@H]3C[C@@H]3F)ncc12 (racemic)
- Ki: 0.135 nM

SMILES: Cc1cc2c(cc1-c1cc3cc(NC(=O)[C@@H]4C[C@@H]4F)ncc3c(N)n1)CC(=O)N2 (racemic)
- Ki: 2.81 nM

SMILES: Cn1ccc2cncc(-c3cc4cc(NC(=O)[C@@H]5C[C@@H]5F)ncc4c(N)n3)c21 (racemic)
- Ki: 101 nM

SMILES: Cc1cc(C)c(-c2cc3cc(NC(=O)[C@@H]4C[C@H]4C#N)ncc3c(N)n2)cc1C(N)=O (racemic)
- Ki: 89 nM

SMILES: CCC1CCCN1c1cc2cc(NC(=O)[C@H]3C[C@H]3F)ncc2c(N)n1 (mixture of isomers)
- Ki: 172 nM

SMILES: Cc1cc(-c2ccn(C)n2)ncc1-c1cc2cc(NC(=O)[C@H]3C[C@@H]3c3cnn(C)c3)ncc2c(N)n1
- Ki: 2.26 nM

SMILES: Cc1ncc(-c2cc3cc(NC(=O)[C@@H]4C[C@H]4C#N)ncc3c(N)n2)n1C (relative stereo)
- Ki: 18.9 nM

SMILES: Cc1ccncc1-c1cc2cc(NC(=O)[C@@H]3[C@H](C)[C@H]3CC#N)ncc2c(N)n1
- Ki: 0.188 nM

SMILES: Cc1cc(-n2cccn2)ncc1-c1cc2cc(NC(=O)[C@H]3C[C@@H]3c3cnn(C)c3)ncc2c(N)n1
- Ki: 3.3 nM
